Assay results reported in patent US10562891B2, “Quinazolinones as PARP14 inhibitors” (Ribon Therapeutics Inc., priority 2017, dated 2020).
pIC50: −log10 of the molar value. Where a name gives a salt, the structure may show the parent alone.

Biological target: catalytic domain of human PARP14 (Homo sapiens (Human), UniProt Q460N5)
Assay: Enzymatic assay for inhibition of PARP14 (DELFIA, auto-modification with biotin-NAD)
Type: biochemical
Conditions: auto-modification of PARP14 by biotin-NAD, 50 nM PARP14, 3 μM biotin-NAD
In short: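 His-TEV-tagged PARP14 catalytic domain (50 nM) preincubated with compound 30 min at 25 °C, then auto-modified with 3 μM biotin-NAD for 3 h at 25 °C in HEPES pH 8 buffer with DTT. IC50 from 4-parameter fit, rucaparib and DMSO as controls.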

catalytic domain of human PARP14, sequence (Q460N5 1611-1801): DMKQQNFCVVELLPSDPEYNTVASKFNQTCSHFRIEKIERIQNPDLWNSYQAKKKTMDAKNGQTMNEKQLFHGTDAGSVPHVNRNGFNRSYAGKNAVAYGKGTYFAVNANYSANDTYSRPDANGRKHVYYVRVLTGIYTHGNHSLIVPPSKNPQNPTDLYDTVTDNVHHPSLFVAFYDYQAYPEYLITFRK

**Q.** With `O=c1[nH]c(CSC2CCOCC2)nc2cc(OCC3CC(F)(F)C3)cc(F)c12` [Example 317, 7-((3,3-Difluorocyclobutyl)methoxy)-5-fluoro-2-(((tetrahydro-2H-pyran-4-yl)thio)methyl)quinazolin-4(3H)-one] as the compound, how does the pIC50 read?
**A.** > 6.00

**Q.** How did the pIC50 turn out when `C[C@]1(O)C[C@@H](COc2cc(F)c3c(=O)[nH]c(CSC4CCOCC4)nc3c2)C1` [Example 386] was run?
**A.** > 6.00

**Q.** `Cc1cccc2c(=O)[nH]c(CSC3CCCNC3)nc12` (stereo not drawn) [Example 48, 8-Methyl-2-((piperidin-3-ylthio)methyl)quinazolin-4(3H)-one Hydrochloride] was tested. Which pIC50 did it give?
**A.** 5.00 to 6.00

**Q.** How did the pIC50 turn out when `O=c1[nH]c(CSC2CCOCC2)nc2cc(OCC3CCS(=O)(=O)CC3)cc(F)c12` [Example 351] was run?
**A.** > 6.00

**Q.** How did the pIC50 turn out when `CNc1cc2nc(CSC3CCOCC3)[nH]c(=O)c2c(F)c1F` [Example 420] was run?
**A.** > 6.00

**Q.** `Cc1c(Oc2ccccc2)ccc2c(=O)[nH]c(CSC3CCOCC3)nc12` [Example 135, 8-Methyl-7-phenoxy-2-(((tetrahydro-2H-pyran-4-yl)thio)methyl)quinazolin-4(3H)-one] was tested. Which pIC50 did it give?
**A.** < 5.00

**Q.** `O=c1[nH]c(CSC2CCOCC2)nc2cc(NC3CCCC3(F)F)cc(F)c12` (stereo not drawn) [Example 231, 7-((2,2-Difluorocyclopentyl)amino)-5-fluoro-2-(((tetrahydro-2H-pyran-4-yl)thio)methyl)quinazolin-4(3H)-one] was tested. Which pIC50 did it give?
**A.** > 6.00

**Q.** How did the pIC50 turn out when `O=c1[nH]c(CS[C@H]2CC[C@H](CO)CC2)nc2cc(Nc3cccnc3)ccc12` [Example 107, 2-(((trans-4-(Hydroxymethyl)cyclohexyl)thio)methyl)-7-(pyridin-3-ylamino) quinazolin-4(3H)-one] was run?
**A.** > 6.00

**Q.** `O=c1[nH]c(CSC2CCOCC2)nc2cc(NC3CCCC3)cc(CO)c12` [Example 224, 7-(Cyclopentylamino)-5-(hydroxymethyl)-2-(((tetrahydro-2H-pyran-4-yl)thio)methyl)quinazolin-4(3H)-one] was tested. Which pIC50 did it give?
**A.** 5.00 to 6.00

**Q.** With `CC(=O)N1CCC(SCc2nc3cc(N[C@@H]4CCCN(S(C)(=O)=O)C4)ccc3c(=O)[nH]2)CC1` [Example 268, (R)-2-(((1-acetylpiperidin-4-yl)thio)methyl)-7-((1-(methylsulfonyl)piperidin-3-yl)amino)quinazolin-4(3H)-one] as the compound, how does the pIC50 read?
**A.** > 6.00

**Q.** `O=C(N[C@H]1CC[C@H](SCc2nc3cc(OCC4CC4)cc(F)c3c(=O)[nH]2)CC1)C1CC1` [Example 395] was tested. Which pIC50 did it give?
**A.** > 6.00

**Q.** `CCC(=O)N[C@H]1CC[C@H](SCc2nc3cc(OCC4CC4)cc(F)c3c(=O)[nH]2)CC1` [Example 378] was tested. Which pIC50 did it give?
**A.** > 6.00

**Q.** How did the pIC50 turn out when `O=c1[nH]c(CS[C@H]2CC[C@@H](O)CC2)nc2cc(NC3CCCC3)ccc12` [Example 103, 7-(Cyclopentylamino)-2-(((cis-4-hydroxycyclohexyl)thio)methyl) quinazolin-4(3H)-one] was run?
**A.** > 6.00

**Q.** With `O=c1[nH]c(CSC2CCOCC2)nc2cc(OCC3CCCOC3)cc(F)c12` (stereo not drawn) [Example 319, 5-Fluoro-7-((tetrahydro-2H-pyran-3-yl)methoxy)-2-(((tetrahydro-2H-pyran-4-yl)thio)methyl)quinazolin-4(3H)-one] as the compound, how does the pIC50 read?
**A.** > 6.00

**Q.** With `O=c1[nH]c(CSC2CCOCC2)nc2cc(Nc3ccncc3)ccc12` [Example 86, 7-(Pyridin-4-ylamino)-2-(((tetrahydro-2H-pyran-4-yl)thio)methyl)quinazolin-4(3H)-one] as the compound, how does the pIC50 read?
**A.** 5.00 to 6.00

**Q.** How did the pIC50 turn out when `O=c1[nH]c(CSC2CCN(C3CS(=O)(=O)C3)CC2)nc2cc(NC3CCCC3)cc(F)c12` [Example 273, 7-(Cyclopentylamino)-2-(((1-(1,1-dioxidothietan-3-yl)piperidin-4-yl)thio)methyl)-5-fluoroquinazolin-4(3H)-one] was run?
**A.** > 6.00

**Q.** With `O=c1[nH]c(CSC2CCN(CC(F)(F)F)CC2)nc2cc(NC3CCCC3)cc(F)c12` [Example 263, 7-(Cyclopentylamino)-5-fluoro-2-(((1-(2,2,2-trifluoroethyl)piperidin-4-yl)thio)methyl)quinazolin-4(3H)-one] as the compound, how does the pIC50 read?
**A.** > 6.00

**Q.** `O=c1[nH]c(CSC2CCOCC2)nc2cc(NCC3CCOCC3)c(F)c(F)c12` [Example 338] was tested. Which pIC50 did it give?
**A.** > 6.00

**Q.** How did the pIC50 turn out when `Cc1cccc2c(=O)[nH]c(CS[C@H]3CC[C@H](CO)CC3)nc12` [Example 62, 2-(((trans-4-(Hydroxymethyl)cyclohexyl)thio)methyl)-8-methylquinazolin-4(3H)-one] was run?
**A.** > 6.00

**Q.** With `Cc1cccc2c(=O)[nH]c(CS[C@H]3CC[C@@H](CO)OC3)nc12` (relative stereo) [Example 221, 2-(((Cis-6-(Hydroxymethyl)tetrahydro-2H-pyran-3-yl)thio)methyl)-8-methylquinazolin-4(3H)-one] as the compound, how does the pIC50 read?
**A.** 5.00 to 6.00

**Q.** `O=c1[nH]c(CS[C@H]2CC[C@H](OC(F)(F)F)CC2)nc2cc(OCC3CCOCC3)cc(F)c12` [Example 375] was tested. Which pIC50 did it give?
**A.** > 6.00

**Q.** With `CO[C@H]1CC[C@@H](Nc2cc3nc(CS[C@H]4CC[C@H](O)CC4)[nH]c(=O)c3c(F)c2F)CC1` [Example 379] as the compound, how does the pIC50 read?
**A.** > 6.00

**Q.** `Cc1cccc2c(=O)[nH]c(CSC3CCOCC3)nc12` [Example 2] was tested. Which pIC50 did it give?
**A.** > 6.00

**Q.** `O=c1[nH]c(CSC2CCOCC2)nc2cc(NC3CCCCC3)cc(F)c12` [Example 247, 7-(Cyclohexylamino)-5-fluoro-2-(((tetrahydro-2H-pyran-4-yl)thio)methyl)quinazolin-4(3H)-one] was tested. Which pIC50 did it give?
**A.** > 6.00

**Q.** `Cc1cccnc1CN1CCC(SCc2nc3c(C)cccc3c(=O)[nH]2)CC1` [Example 146, 8-Methyl-2-(((1-((3-methylpyridin-2-yl)methyl)piperidin-4-yl)thio)methyl)quinazolin-4(3H)-one bistrifluoroacetate] was tested. Which pIC50 did it give?
**A.** > 6.00

**Q.** How did the pIC50 turn out when `O=c1[nH]c(CS[C@H]2CC[C@@H](C(=O)O)CC2)nc2cc(NC3CCCC3)cc(F)c12` [Example 216, cis-4-(((7-(Cyclopentylamino)-5-fluoro-4-oxo-3,4-dihydroquinazolin-2-yl)methyl)thio)cyclohexane-1-carboxylic acid] was run?
**A.** 5.00 to 6.00

**Q.** `Cc1cccc2c(=O)[nH]c(CS[C@H]3CC[C@H](CN)CC3)nc12` [Example 66, 2-(((trans-4-(Aminomethyl)cyclohexyl)thio)methyl)-8-methylquinazolin-4(3H)-one Trifluoroacetate] was tested. Which pIC50 did it give?
**A.** > 6.00

**Q.** `O=c1[nH]c(CSC2CCS(=O)(=O)CC2)nc2cc(OCC3CCC3)cc(F)c12` [Example 304, 7-(cyclobutylmethoxy)-2-(((1,1-dioxidotetrahydro-2H-thiopyran-4-yl)thio)methyl)-5-fluoroquinazolin-4(3H)-one] was tested. Which pIC50 did it give?
**A.** > 6.00

**Q.** `Cc1cccc2c(=O)[nH]c(CSC3CCN(C(=O)CCN)CC3)nc12` [Example 167, 2-(((1-(3-Aminopropanoyl)piperidin-4-yl)thio)methyl)-8-methylquinazolin-4(3H)-one Hydrochloride] was tested. Which pIC50 did it give?
**A.** 5.00 to 6.00

**Q.** How did the pIC50 turn out when `O=c1[nH]c(CSC2CCOCC2)nc2cc(OCC3CCOCC3)c(F)c(F)c12` [Example 406] was run?
**A.** > 6.00

**Q.** `O=c1[nH]c(CS[C@H]2CC[C@H](O)CC2)nc2cc(N[C@@H]3CCCOC3)c(F)c(F)c12` [Example 381] was tested. Which pIC50 did it give?
**A.** > 6.00

**Q.** How did the pIC50 turn out when `O=c1[nH]c(CSC2CCOCC2)nc2ccncc12` [Example 40, 2-(((Tetrahydro-2H-pyran-4-yl)thio)methyl)pyrido[4,3-d]pyrimidin-4(3H)-one] was run?
**A.** < 5.00

**Q.** How did the pIC50 turn out when `CS(=O)(=O)N1CCC[C@@H](Nc2ccc3c(=O)[nH]c(CSC4CCOCC4)nc3n2)C1` [Example 201, (R)-7-((1-(methylsulfonyl)piperidin-3-yl)amino)-2-(((tetrahydro-2H-pyran-4-yl)thio)methyl)pyrido[2,3-d]pyrimidin-4(3H)-one] was run?
**A.** > 6.00

**Q.** With `O=C(Nc1ccc2c(=O)[nH]c(CSC3CCOCC3)nc2c1)c1ccccc1` [Example 76, N-(4-Oxo-2-(((tetrahydro-2H-pyran-4-yl)thio)methyl)-3,4-dihydroquinazolin-7-yl)benzamide] as the compound, how does the pIC50 read?
**A.** 5.00 to 6.00

**Q.** `N#C[C@H]1CC[C@H](Nc2cc3nc(CSC4CCOCC4)[nH]c(=O)c3c(F)c2F)CC1` [Example 360] was tested. Which pIC50 did it give?
**A.** > 6.00

**Q.** `O=c1[nH]c(CSC2CCOCC2)nc2cc(N[C@H]3CC[C@@H](N4CCOCC4)CC3)cc(F)c12` [Example 234, 5-Fluoro-7-((cis-4-morpholinocyclohexyl)amino)-2-(((tetrahydro-2H-pyran-4-yl)thio)methyl)quinazolin-4(3H)-one Trifluoroacetate] was tested. Which pIC50 did it give?
**A.** 5.00 to 6.00
